Experimental data reported in patent US5670506A, “Halogen, isothiocyanate or azide substituted xanthines” (Cell Therapeutics, Inc., priority 1993, dated 1997).

What was measured:
human lymphocytes = assay: inhibition of blast formation from human lymphocytes stimulated by IL-2; assay type: cell-based; conditions: Lymphocyte, FIG. 10, read-out: IC50, blastogenesis stimulated by IL-2
Protocol: This is a human in vitro assay for immunosuppressive activity of the inventive compounds.
A third assay measures an ability of an inventive compound to inhibit IL-2-induced proliferation of murine thymocytes. Thymus glands are obtained from 4-6 week old mice and plated as a single cell suspension into flat bottomed wells in RPMI 1640 medium supplemented with 10% fetal calf serum. The inventive compounds are added to appropriate wells and the cells are incubated for 1-2 hrs. Concanavilin A (ConA, 0.25 μg/ml) and IL-1 (20 ng/ml) are added and the plates are incubated for 4 days. Cell proliferation is determined as above. There are also variations for this assay that follow the same basic stimulation and measure inhibition of proliferation format. For example, splenocytes can be used instead of thymocytes to measure more of a B cell response than a T cell response (e.g., thymocytes) and stimulated by an anti-mu antibody (40 μg/ml), IL-4 or PMA (2.5 nM). Similarly, human lymphocytes can be used from normal human volunteers and stimulated with human IL-2 (100 U/ml, Genzyme) and/or anti-CD3 antibody (2.5 μg/ml, Boehinger Mannheim).
This example illustrates an experiment showing the effects of CT1525, CT1529 and CT1595 (see Table 1 above for chemical names) on inhibition of blast formation from human lymphocytes stimulated by IL-2 or an anti-CD3 antibody (FIG. 10). […]

murine thymocytes = assay: inhibition of murine thymocyte proliferation stimulated by ConA and IL-1α; assay type: cell-based, murine (Balb/C mice); conditions: FIG. 4, 4 days
Protocol: The drugs (inventive compounds) were added to the cells at the doses indicated two hours prior to activation with ConA and IL-1α. […] Background counts were less than 200 cpm. This in vitro assay is a model for immune suppression and treatment or prevention of autoimmune diseases.
A third assay measures an ability of an inventive compound to inhibit IL-2-induced proliferation of murine thymocytes. Thymus glands are obtained from 4-6 week old mice and plated as a single cell suspension into flat bottomed wells in RPMI 1640 medium supplemented with 10% fetal calf serum. The inventive compounds are added to appropriate wells and the cells are incubated for 1-2 hrs. Concanavilin A (ConA, 0.25 μg/ml) and IL-1 (20 ng/ml) are added and the plates are incubated for 4 days. Cell proliferation is determined as above. There are also variations for this assay that follow the same basic stimulation and measure inhibition of proliferation format. […]
This example illustrates the effect of CT1514, CT1525, CT1527, CT1529, CT1577, CT1583, CT1589, CT1595, CT2519, CT1205, CT1801 and CT1908 on inhibition of murine thymocyte proliferation stimulated by Concanavalin A (ConA) and interleukin-2 (IL-2) (FIG. 4). […] The cells were harvested and incorporated tritiated thymidine was determined in a liquid scintillation counter. […]

[1] = tested on: TNF release from monocytes in whole blood; assay: ex vivo human TNF model, LPS-mediated TNF release in whole blood; assay type: cell-based; conditions: FIG. 14
Protocol: This model adds LPS to whole blood (normal human volunteers) to trigger a dose-dependent synthesis and extracellular release of TNF according to Desch et al. (Lymphokine Res. 8:141, 1989). The ex vivo model examines whether LPS-mediated release of TNF from monocytes in whole blood can be block by an inventive compound.
An ex vivo human sepsis model is described in Desch et al., Lymphokine Res. 8:141, 1989 and in Ooi et al., J. Exp. Med. 174:649, 1991. Briefly, whole blood from humans is incubated with LPS (endotoxin). TNF released from cells (mostly from monocytes) is measured. The inventive compounds lower TNF levels as compared with untreated controls in this model.
This example illustrates a comparative experiment comparing CT1595, CT1529 and CT2519 in an ex vivo human TNF model described herein. This assay is a predictive model for treatment and prevention of septic shock and sepsis syndrome. This model adds LPS to whole blood (normal human volunteers) to trigger a dose-dependent synthesis and extracellular release of TNF according to Desch et al. (Lymphokine Res. 8:141, 1989). The ex vivo model examines whether LPS-mediated release of TNF from monocytes in whole blood can be block by an inventive compound.

## Cn1cnc2c1c(=O)n(CCCCC(=O)CCl)c(=O)n2C [CT1595, 1-(6-chloro-5-oxohexyl)-3,7-dimethylxanthine]
Human lymphocytes
  IC50: < 5 µM
Murine thymocytes
  inhibition of thymocyte proliferation: most potent drugs
[1]
  block of LPS-mediated TNF release: could block TNF release in a dose-dependent fashion
